Molecular target: PIK3CA (human) (UniProt P42336)
Experiment: Assessment of PIK3CA Kinase Activity

Sequence of PIK3CA (human) (P42336 whole entry, looked up): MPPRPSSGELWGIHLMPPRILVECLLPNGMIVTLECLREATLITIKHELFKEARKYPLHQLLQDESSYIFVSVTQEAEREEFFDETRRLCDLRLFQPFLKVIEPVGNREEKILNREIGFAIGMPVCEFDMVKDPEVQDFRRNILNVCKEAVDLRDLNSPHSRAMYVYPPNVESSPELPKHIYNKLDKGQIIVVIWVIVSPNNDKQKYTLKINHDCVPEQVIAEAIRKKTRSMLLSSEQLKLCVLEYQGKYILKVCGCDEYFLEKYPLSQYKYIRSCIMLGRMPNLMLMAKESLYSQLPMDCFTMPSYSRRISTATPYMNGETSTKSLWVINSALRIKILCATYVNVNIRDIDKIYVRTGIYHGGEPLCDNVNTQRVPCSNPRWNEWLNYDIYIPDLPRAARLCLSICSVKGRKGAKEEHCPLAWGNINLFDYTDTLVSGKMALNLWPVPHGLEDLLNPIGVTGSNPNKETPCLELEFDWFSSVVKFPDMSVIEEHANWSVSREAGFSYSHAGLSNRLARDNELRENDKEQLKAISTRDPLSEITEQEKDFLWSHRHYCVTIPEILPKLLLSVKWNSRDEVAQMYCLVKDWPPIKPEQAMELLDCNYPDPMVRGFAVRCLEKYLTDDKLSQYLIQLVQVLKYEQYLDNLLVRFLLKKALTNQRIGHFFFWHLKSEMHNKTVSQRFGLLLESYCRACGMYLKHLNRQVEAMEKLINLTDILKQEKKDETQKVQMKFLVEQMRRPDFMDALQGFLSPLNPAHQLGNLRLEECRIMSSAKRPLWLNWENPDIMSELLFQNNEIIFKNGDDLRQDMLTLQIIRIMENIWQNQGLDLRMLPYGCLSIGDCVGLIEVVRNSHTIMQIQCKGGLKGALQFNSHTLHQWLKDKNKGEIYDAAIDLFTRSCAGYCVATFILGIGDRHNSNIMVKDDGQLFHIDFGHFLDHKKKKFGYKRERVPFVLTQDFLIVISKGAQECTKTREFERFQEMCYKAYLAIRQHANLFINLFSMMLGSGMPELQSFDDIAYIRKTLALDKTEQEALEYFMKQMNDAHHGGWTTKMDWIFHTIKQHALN

SMILES | IC50 [µM]
CC(C)n1ncnc1-c1cn2c(n1)-c1cc(-c3cn[nH]c3)ccc1OCC2 | < 1
CC(C)n1nc(N)nc1-c1cn2c(n1)-c1cc(C(F)(F)F)ccc1OCC2 | < 1
Cc1nc(-c2cn3c(n2)-c2cnc(N4C[C@H](O)C[C@H]4C(N)=O)cc2OCC3)n(C(C)C)n1 | < 1
Cc1n[nH]c(-c2cn3c(n2)-c2ccc(-c4cnn(CCO)c4)cc2OCC3)n1 | < 1
CC(C)n1ncnc1-c1cn2c(n1)-c1cnc(N3CC[C@H](C)[C@H]3C(N)=O)cc1OCC2 | < 1
CC(C)n1ncnc1-n1cc2c(n1)-c1ccc(Br)cc1OCC2 | < 1
CC(C)n1ncnc1-c1cn2c(n1)-c1cnc(O[C@H](C)C(N)=O)cc1OCC2 | < 1
CC(C)n1cnnc1-n1cc2c(n1)-c1ccccc1OCC2 | < 1
CC(C)n1ncnc1-c1cn2c(n1)-c1ccc(C(=O)NO)cc1OCC2 | < 1
CC(C)n1ncnc1-c1cn2c(n1)-c1ccc(-c3cn[nH]c3)cc1OCC2 | < 1
CC(C)n1ncnc1-c1cn2c(n1)-c1cc(-c3cncnc3)ccc1OCC2 | < 1
Cc1nc(-c2cn3c(n2)-c2ccc(Br)cc2OCC3)n(C(C)C)n1 | < 1
CC(C)n1ncnc1-c1cn2c(n1)-c1ccc(N3CC(C(N)=O)C3)nc1OCC2 | < 1
CC(C)n1ncnc1-c1cn2c(n1)-c1ccc(C3CCN(C(C)(C)C(N)=O)CC3)cc1OCC2 | < 1
CC(C)n1ncnc1-c1cn2c(n1)-c1ccc(C3CN(CCS(=O)(=O)N(C)C)C3)cc1OCC2 | < 1
CC(C)n1ncnc1-c1cn2c(n1)-c1cc(N3CCN(C)CC3)ncc1OCC2 | < 1
Cc1nc(-c2cn3c(n2)-c2ccc(-c4cnc(N)nc4)cc2OCC3)n(C(C)C)n1 | < 1
CC(C)n1nc(N)nc1-c1cn2c(n1)-c1ccc(-c3cnn(CC(C)(C)O)c3)cc1OCC2 | < 1
Cc1nc(-c2cn3c(n2)-c2ccc(-c4cnn(C5CN(CCO)C5)c4)cc2OCC3)n(C(C)C)n1 | < 1
Cc1nc(-c2cn3c(n2)-c2cnc(N4CCCC4C4CCCCN4C)cc2OCC3)n(CC(F)(F)F)n1 (stereo unspecified) | < 1
CC(C)n1ncnc1-c1cc2n(n1)-c1cc(CN3CCNC(=O)C3)ccc1OCC2 | < 1
CC(C)n1ncnc1-c1cn2c(n1)-c1cnc(N3C4CCC3C(=O)NC4)cc1OCC2 (stereo unspecified) | < 1
CC(C)n1ncnc1-c1cn2c(n1)-c1cnc(N[C@@H](C)C(N)=O)cc1OCC2 | < 1
CC(C)n1ncnc1-c1cn2c(n1)-c1cnc(N3C[C@H](F)C[C@H]3C(N)=O)cc1OCC2 | < 1

SMILES | IC50 [µM]
CC(C)n1nc(N)nc1-c1cn2c(n1)-c1cc(-c3ccccc3)ccc1OCC2 | < 1
Cc1nc(-c2cn3c(n2)-c2cnc(N4CCC[C@H]4C(N)=O)cc2OCC3)n(-c2cc(F)cc(F)c2)n1 | < 1
CC(C)n1nc(N)nc1-c1cn2c(n1)-c1cc(F)c(F)cc1OCC2 | < 1
Cc1nc(-c2cn3c(n2)-c2cnc(N4CC(F)(F)C[C@H]4C(N)=O)cc2OCC3)n(C(C)C)n1 | < 1
CC(C)n1ncnc1-c1cn2c(n1)-c1cnc(N3CC=C[C@@H]3C(N)=O)cc1OCC2 | < 1
Cc1nc(-c2cn3c(n2)-c2ccc(C4CCN(CC(=O)N(C)C)CC4)cc2OCC3)n(C(C)C)n1 | < 1
Fc1ccc(-n2ncnc2-c2cn3c(n2)-c2cnc(NCc4ncc[nH]4)cc2OCC3)c(F)c1 | < 1
CC(C)n1ncnc1-c1cn2c(n1)-c1cnc(N3CCC(C)(C)[C@H]3C(N)=O)cc1OCC2 | < 1
CNC(=O)CN1CCN(c2ccc3c(n2)OCCn2cc(-c4ncnn4C(C)C)nc2-3)CC1 | < 1
CC(C)N1CCN(C(=O)c2ccc3c(c2)-c2nc(-c4ncnn4CC(F)(F)F)cn2CCO3)CC1 | < 1
CC(C)n1nc(CO)nc1-c1cn2c(n1)-c1cnc(N(C)C)cc1OCC2 | < 1
NC(=O)CN1CCC(c2ccc3c(c2)-c2nn(-c4ncnn4-c4ccc(F)cc4F)cc2CCO3)CC1 | < 1
NC(=O)[C@@H]1CCCN1c1cc2c(cn1)-c1nc(-c3ncnn3CC(F)(F)F)cn1CCO2 | < 1
COc1ccc2c(c1)OCCn1cc(-c3nc(C)nn3C(C)C)nc1-2 | < 1
CC(C)n1ncnc1-c1cn2c(n1)-c1cnc(N3CC[C@H](O)[C@H]3C(N)=O)cc1OCC2 | < 1
CC(C)n1ncnc1-c1cc2n(n1)-c1cc(CN3CCN(C(=O)CO)CC3)ccc1OCC2 | < 1
CC(C)n1nc(N)nc1-c1cn2c(n1)-c1ccc(-c3cnn(CCO)c3)cc1OCC2 | < 1
CC(C)n1ncnc1-c1cn2c(n1)-c1cnc(N3CC=C[C@H]3C(N)=O)cc1OCC2 | < 1
CC(C)n1ncnc1-c1cn2c(n1)-c1cnc(N)cc1OCC2 | < 1
OCCn1cc(-c2ccc3c(c2)OCCn2cc(-c4ncnn4CC(F)(F)F)nc2-3)cn1 | < 1
COC(=O)c1ccc2c(c1)OCCn1cc(-c3ncnn3C(C)C)nc1-2 | < 1
CC(C)N1CCN(C(=O)c2ccc3c(c2)-c2nc(-c4ncnn4-c4ccccc4Cl)cn2CCO3)CC1 | < 1
CNc1nc(-c2cn3c(n2)-c2ccccc2OCC3)n(C(C)C)n1 | < 1
CC[C@@H](Oc1ccc2c(c1)OCCn1cc(-c3ncnn3CC(F)(F)F)nc1-2)C(N)=O | < 1

SMILES | IC50 [µM]
Cc1nc(-c2cn3c(n2)-c2ccc(-c4cnn(C5CN(C(=O)[C@H](C)O)C5)c4)cc2OCC3)n(C(C)C)n1 | < 1
CC(C)n1ncnc1-c1cn2c(n1)-c1ccc(OCC(F)(F)F)cc1OCC2 | < 1
CC(C)n1ncnc1-c1cn2c(n1)-c1ccc(N(C)[C@@H](C)C(N)=O)cc1OCC2 | < 1
CC(C)(CO)N1CCC(c2ccc3c(c2)-c2nn(-c4ncnn4-c4ccc(F)cc4F)cc2CCO3)CC1 | < 1
CC(C)n1ncnc1-c1cn2c(n1)-c1ccc(=O)[nH]c1OCC2 | < 1
NC(=O)c1ccc2c(c1)OCCc1cn(-c3ncnn3-c3ccc(F)cc3F)nc1-2 | < 1
CC(C)n1ncnc1-c1cc2n(n1)-c1cc(C3CN(CC(N)=O)C3)ccc1OCC2 | < 1
CSc1nc(-c2cn3c(n2)-c2ccc(Br)cc2OCC3)n(C(C)C)n1 | < 1
Cc1nc(-c2cn3c(n2)-c2ccc(C4CCN(CC(N)=O)CC4)cc2OCC3)n(C(C)C)n1 | < 1
CC(C)n1ncnc1-c1cn2c(n1)-c1ccc(CC(N)=O)cc1OCC2 | < 1
CC(C)n1ncnc1-c1cn2c(n1)-c1ccc(N3CCC[C@@H]3C(N)=O)cc1OCC2 | < 1
Fc1ccc(-n2ncnc2-c2cn3c(n2)-c2cnc(NCCCn4ccnc4)cc2OCC3)c(F)c1 | < 1
COC(=O)C(C)(C)n1cc(-c2ccc3c(c2)OCCn2cc(-c4nc(C)nn4C(C)C)nc2-3)cn1 | < 1
CC(C)(O)Cn1cc(-c2ccc3c(c2)OCCn2cc(C(=O)N4CCS(=O)(=O)CC4)nc2-3)cn1 | < 1
Cc1cn(C(C)C)c(-c2cn3c(n2)-c2ccc(-c4cnn(CC(C)(C)O)c4)cc2OCC3)n1 | < 1
Cc1nc(-c2cn3c(n2)-c2ccc(OC4COC4)cc2OCC3)n(C(C)C)n1 | < 1
CCOC(=O)C(C)Cn1cc(-c2ccc3c(c2)OCCn2cc(-c4nc(C)nn4C(C)C)nc2-3)cn1 (stereo unspecified) | < 1
Cc1nc(-c2cn3c(n2)-c2ccc([C@H]4CCCN4C(N)=O)cc2OCC3)n(C(C)C)n1 | < 1
NC(=O)[C@@H]1CCCN1c1cc2c(cn1)-c1nc(-c3ncnn3-c3ccc(F)cc3F)cn1CCO2 | < 1
CC(C)n1nccc1-c1cn2c(n1)-c1cc(C(N)=O)ccc1OCC2 | < 1
Cc1nc(-c2cn3c(n2)-c2cnc(N)cc2OCC3)n(C(C)C)n1 | < 1
CC(C)n1ncnc1-c1cn2c(n1)-c1ccc(OCC3(N)COC3)cc1OCC2 | < 1
CC(C)n1ncnc1-c1cn2c(n1)-c1cnc(O[C@@H](C)C(N)=O)cc1OCC2 | < 1
CC(C)n1nccc1-c1cn2c(n1)-c1ccc(CNC(N)=O)cc1OCC2 | < 1

SMILES | IC50 [µM]
CC(C)n1ncnc1-c1cn2c(n1)-c1cnc(NCC(O)c3nccn3C)cc1OCC2 (stereo unspecified) | < 1
CC(C)n1ncnc1-c1cn2c(n1)-c1ccc(C3CN(C(C)(C)C(N)=O)C3)cc1OCC2 | < 1
COC[C@H](Nc1ccc2c(c1)OCCn1cc(-c3ncnn3CC(F)(F)F)nc1-2)C(N)=O | < 1
Cc1nc(-c2cn3c(n2)-c2ccc(C4CCN(CCO)CC4)cc2OCC3)n(C(C)C)n1 | < 1
CC(C)(CO)NC(=O)c1ccc2c(c1)-c1nc(-c3nccn3-c3ccccc3Cl)cn1CCO2 | < 1
O=C(c1ccc2c(c1)-c1nc(-c3ncnn3CC(F)(F)F)cn1CCO2)N1CCOCC1 | < 1
CC(C)n1ncnc1-c1cn2c(n1)-c1ccc(NCC(N)=O)cc1OCC2 | < 1
CNC(=O)CN1CC(c2ccc3c(c2)OCCn2cc(-c4ncnn4C(C)C)nc2-3)C1 | < 1
CC(C)n1ncnc1-c1cn2c(n1)-c1cc(N3CCNC(=O)C3)ncc1OCC2 | < 1
Cc1nc(-c2cn3c(n2)-c2cc(F)ccc2OCC3)n(C(C)C)n1 | < 1
CC(C)NC(=O)CN1CCC(c2ccc3c(c2)OCCn2cc(-c4ncnn4C(C)C)nc2-3)CC1 | < 1
Cc1nc(-c2cn3c(n2)-c2cnc(NCC(=O)O)cc2OCC3)n(C(C)C)n1 | < 1
CC(C)n1ncnc1-c1cn2c(n1)-c1ccc(-c3ccccc3S(C)(=O)=O)cc1OCC2 | < 1
CC(C)n1ncnc1-c1cn2c(n1)-c1ccc(N3CCN(CC(=O)N(C)C)CC3)nc1OCC2 | < 1
Cc1nc(-c2cn3c(n2)-c2ccc(-c4cnn(CCO)c4)cc2OCC3)n(C)n1 | < 1
CC(C)n1ncnc1-c1cn2c(n1)-c1cnc(N(C)CC(N)=O)cc1OCC2 | < 1
Clc1ccc(-c2ccc3c(c2)-c2nc(-c4ncnn4-c4ccccc4Cl)cn2CCO3)cc1 | < 1
COCc1nc(-c2cn3c(n2)-c2ccc(C4CCN(CC(N)=O)CC4)cc2OCC3)n(C(C)C)n1 | < 1
Cc1nc(-c2cn3c(n2)-c2ccc(-c4cccnc4)cc2OCC3)n(C(C)C)n1 | < 1
Cc1nc(-c2cn3c(n2)-c2ccc(CC(N)=O)cc2OCC3)n(C(C)C)n1 | < 1
Cc1nc(-c2cn3c(n2)-c2ccc(-c4cnn(CCN5CCOCC5)c4)cc2OCC3)n(C(C)C)n1 | < 1
CC(C)n1ncnc1-c1cn2c(n1)-c1cc(-c3ccc[nH]c3=O)ncc1OCC2 | < 1
CNC(=O)c1ccc2c(c1)OCCn1cc(-c3ncnn3CC(F)(F)F)nc1-2 | < 1
CC(C)n1ncnc1-c1cn2c(n1)-c1ccc(O[C@@H](C)C(=O)O)cc1OCC2 | < 1
